Test [1] relates to Sp1, Sp3 and Sp4 proteins. In words: Western blot of Sp1, Sp3 and Sp4 protein expression in L3.6pl cells. To be noted: 50 μM, 48 hr. It is filed as cell-based, human.
Procedure: Cells were treated with 50 μM non-steroidal anti-inflammatory drugs/COX-1/2 inhibitors for 48 hr and whole cell lysates were analyzed by Western blot analysis. […] Protein band intensities were standardized based on β-tubulin protein as a loading control.
Cells are washed once with phosphate buffered saline PBS and collected by scraping in 200 μL of lysis buffer [50 mM HEPES, 0.5M sodium chloride, 1.5 mM magnesium chloride, 1 mM EGTA, 10% (v/v) glycerol, 1% Triton X-100, 5 μL/ml of Protease Inhibitor Cocktail (Sigma)]. The lysates from the cells are incubated on ice for 1 hr with intermittent vortexing followed by centrifugation at 40,000 g for 10 min at 4° C. Equal amounts of protein (60 μg) from each treatment group are diluted with loading buffer, boiled and loaded onto 10 and 12.5% SDS-polyacrylamide gel. […] Samples are electrophoresed, transferred to membranes, and proteins detected by incubation with polyclonal primary antibodies Sp1, Sp3, Sp4, HDAC, VEGF (a-20), c-Met, surviving, VEGF, cleaved PARP, and β-tubulin (H-235) followed by blotting with appropriate horseradish peroxidase-conjugated secondary antibody as previously described (Abdelrahim et al, 2004). After autoradiography, band intensities are determined by a scanning laser densitometer (Sharp Electronics Corporation, Mahwah, N.J.) using ZERO-D SCANALYTICS software (Scanalytics Corporation, Billerica, Mass.).
Test [2] has as its system Bic-1 esophageal cancer cells. In words: Western blot of Sp and Sp-dependent proteins in BIC-1 esophageal cancer cells. It is filed as cell-based. To be noted: Bic-1 cells, 25-100 μM. As for the experimental part: (§1) Cells are washed once with phosphate buffered saline PBS and collected by scraping in 200 μL of lysis buffer [50 mM HEPES, 0.5M sodium chloride, 1.5 mM magnesium chloride, 1 mM EGTA, 10% (v/v) glycerol, 1% Triton X-100, 5 μL/ml of Protease Inhibitor Cocktail (Sigma)]. The lysates from the cells are incubated on ice for 1 hr with intermittent vortexing followed by centrifugation at 40,000 g for 10 min at 4° C. Equal amounts of protein (60 μg) from each treatment group are diluted with loading buffer, boiled and loaded onto 10 and 12.5% SDS-polyacrylamide gel. For vascular endothelial growth factor immunoblots, 100 μg of protein are used. Samples are electrophoresed, transferred to membranes, and proteins detected by incubation with polyclonal primary antibodies Sp1, Sp3, Sp4, HDAC, VEGF (a-20), c-Met, surviving, VEGF, cleaved PARP, and β-tubulin (H-235) followed by blotting with appropriate horseradish peroxidase-conjugated secondary antibody as previously described (Abdelrahim et al, 2004). After autoradiography, band intensities are determined by a scanning laser densitometer (Sharp Electronics Corporation, Mahwah, N.J.) using ZERO-D SCANALYTICS software (Scanalytics Corporation, Billerica, Mass.).
In general terms: In western blotting, separated proteins are transferred to a membrane and probed.

The test system of test [3] is SEG-1 esophageal cancer cells. In words: Western blot of Sp and Sp-dependent proteins in SEG-1 esophageal cancer cells. In kind it is cell-based. The conditions noted are these: SEG-1 cells, 25-100 μM. As for the experimental part: as §1
Test [4] has as its system VEGF protein. In words: VEGF protein expression in Panc-1 cells, Western blot. In kind it is cell-based. The conditions noted are these: 50 μM, 48 hr, compared to DMSO.
The test system of test [5] is L3.6pl cells. In words: Cell proliferation assay, L3.6pl cells. In kind it is cell-based, human. As for the experimental part: (§2) FIGS. 7A-7D compares effects of tolfenamic acid and ampiroxicam on pancreatic cancer cell proliferation. […] Panc1, Panc28 and L3.6pl cells are seeded in DMEM/F12 media with 5% FBS and treated the next day with either vehicle (DMSO) or with the indicated compounds' concentrations. Cells are counted at the indicated times using a Z1™ COULTER COUNTER® cell counter. Each experiment is carried out in triplicate and results expressed as means ±SD for each determination.

Test [6] concerns Bic-1 esophageal cancer cells. In words: Cell proliferation assay, BIC-1 esophageal cancer cells. It is filed as cell-based. On the set-up: dose or concentration left out as unconfirmed. To be noted: tolfenamic acid, DMSO control.
In test [7] the test system is VEGF promoter constructs pVEGF1 and pVEGF2. In words: VEGF promoter (pVEGF1/pVEGF2) luciferase transactivation in L3.6pl cells. It is filed as cell-based, human. The conditions noted are these: 50 μM.
Procedure: Cells were transfected with pVEGF1 or pVEGF2 treated with DMSO, 50 μM ampiroxicam, tolfenamic acid, or diclofenac sodium, and luciferase activity determined. […] Panc-1 cells were transfected with pVEGF2, treated with 20, 40, 60 or 80 μM ampiroxicam or tolfenamic acid, and luciferase determined. […] Cells are cultured in 6-well plates in 2 ml of DME/F12 medium supplemented with 5% fetal bovine serum.
Test [8] deals with Sp protein interactions with VEGFR1 promoter sequences. In words: Gel mobility shift of Panc-1 nuclear extracts with VEGFR1 32P and GC/SP 32P. In kind it is cell-based. The conditions noted are these: nuclear extracts of Panc-1 cells treated with 50 μM for 48 h.
Procedure: The specific Sp protein bands and antibody supershifted complexes are indicated with arrows.
Vascular endothelial growth factor and VEGFR1 oligonucleotides are synthesized and annealed, and 5 pmol aliquots are 5′-end-labeled using T4 kinase and [y-^32P]ATP. After the reaction sample was incubated 20 min on ice, and antibodies against Sp1, Sp3, and Sp4 proteins are added and incubated another 20 min on ice.
FIGS. 16A and 16B compare the gel mobility shift and antibody supershift patterns of nuclear extracts from Panc-1 cells bound to the proximal region of the VEGFR1 promoter containing both GC-rich and Egr-1 sites (VEGFR1^32P) or GC-rich sites alone (GC/SP^32P).
Test [9] has as its system Sp protein binding to GC-rich VEGF promoter oligonucleotide. In words: Gel mobility shift of nuclear extracts from L3.6pl cells with VEGF32P. To be noted: nuclear extracts of L3.6pl cells treated with 50 μM for 48 hr. It is filed as cell-based, human.
Procedure: Vascular endothelial growth factor and VEGFR1 oligonucleotides are synthesized and annealed, and 5 pmol aliquots are 5′-end-labeled using T4 kinase and [y-^32P]ATP. After the reaction sample was incubated 20 min on ice, and antibodies against Sp1, Sp3, and Sp4 proteins are added and incubated another 20 min on ice. Protein-DNA complexes are resolved by 5% polyacrylamide gel electrophoresis as previously described (Abdelrahim et al, 2004; Abdelrahim et al, 2005, Abdelrahim et al, submitted 2005).
Panc1 or L3.6pl cells were treated with DMSO, 50 μM tolfenamic acid or 50 μM ampiroxicam for 48 hr. Nuclear extracts from these cells were isolated, incubated with VEGF^32P and analyzed in gel mobility shift assays.
The radiolabeled oligonucleotide contained a GC-rich region (−66 to −47) from the VEGF promoter that binds Sp proteins.
Test [10] has as its system SEG-1 esophageal cancer cells. In words: Cell proliferation assay, SEG-1 esophageal cancer cells. In kind it is cell-based. On the set-up: dose or concentration left out as unconfirmed. The conditions noted are these: DMSO control.
Test [11] has as its system Panc-28 cells. In words: Cell proliferation assay, Panc-28 cells. It is filed as cell-based. The procedure:
as §2

Test [12] concerns VEGFR1 mRNA. In words: VEGFR1 mRNA in L3.6pl cells, semi-quantitative RT-PCR. In kind it is cell-based, human. To be noted: 50 μM, 24 h.

As for `Cc1c(Cl)cccc1Nc1ccccc1C(=O)O` [tolfenamic acid], the “decrease of Sp1, Sp3 and Sp4 proteins” value in test [1] is on record as “greater than 65%”. The “apoptosis as shown by PARP cleavage” value in test [2] and in test [3] was “induced apoptosis” throughout. The “expression of Sp-dependent proteins VEGF, survivin, and c-Met” value in test [2] is “decreased expression of Sp-dependent proteins vascular endothelial growth factor (VEGF), survivin, and c-Met”; in [3] it was “decreased expression of Sp-dependent proteins vascular endothelial growth factor (VEGF), survivin, and c-Met”. Moreover, the “protein expression of Sp1, Sp3, and Sp4” value in test [2] was “decreased protein expression of Sp1, Sp3, and Sp4”; in [3], “decreased protein expression of Sp1, Sp3, and Sp4”. In addition, the “decrease of vascular endothelial growth factor expression (protein)” value in test [4] is reported as “greater than 60%”. For the same compound, the “potency as inhibitor of pancreatic cell growth relative to ampiroxicam” value in [5] and in test [11] was “more potent as an inhibitor of pancreatic cell growth than ampiroxicam” each time. The cell growth entry is given as “significantly (p<0.05) inhibited cell growth” in test [5] (25-100 μM, 6 days) and “significantly (p<0.05) inhibited cell growth” in test [11] (25-100 μM, 6 days). Also, the “growth of BIC-1 esophageal cancer cells” value in test [6] is listed as “inhibits growth”. Also, the “luciferase activity, pVEGF1 and pVEGF2 constructs” value in test [7] is recorded as “results similar to those observed in Panc-1 cells”. Besides, the “Sp1, Sp3, and Sp4-DNA retarded band intensity with VEGFR1 32P and GC/SP 32P” value in test [8] was “retarded band intensity was markedly decreased”. Further, the “Sp3 and Sp1/Sp4 retarded bands with VEGF32P” value in test [9] is on record as “retarded bands were decreased”. Besides, the “growth of SEG-1 esophageal cancer cells” value in test [10] was “inhibits growth”. Besides, the “VEGFR1 mRNA levels” value in test [12] is recorded as “decreased VEGFR1 mRNA levels”.

For the origin of these results see patent US20080261911A1, “Uses of diphenyl/diphenylamine carboxylic acids” (priority 2006, published 2008).
